Experimental findings from ChEMBL document CHEMBL5726389, “Heterocyclic compounds and uses thereof” (2017) are described below.

The nature of the assay: The TLC plates are then dried, exposed to a phosphorimager screen (Storm, Amersham), and quantitated. For each compound, kinase activity is measured at 10-12 inhibitor concentrations representing two-fold dilutions from the highest concentration tested (typically, 200 μM).

One may read the IC50 as the concentration needed to halve the response being measured. Read a low IC50 as greater potency.

As for `COc1ccccc1-n1c([C@H](C)NC(=O)c2c(N)nn3cccnc23)cc2cccc(Cl)c2c1=O`, the concentration for half-maximal inhibition (IC50) result is “in the range around 5.5 µM”.

In the case of `C[C@H](NC(=O)c1c(N)nn2cccnc12)c1cc2cccc(Cl)c2c(=O)n1CCCS(C)(=O)=O`, the IC50 result is “in the range around 5.5 µM”.

Regarding `Cc1ccc(-n2c([C@H](C)NC(=O)c3c(N)nn4cccnc34)cc3cccc(Cl)c3c2=O)cc1`, the IC50 result was “in the range around 5.5 µM”.

Consider `C[C@H](NC(=O)c1c(N)nn2cccnc12)c1cc2cccc(Cl)c2c(=O)n1CCc1ncn[nH]1`, for which the 50% inhibitory concentration (IC50) result is “in the range around 5.5 µM”.

For the molecule `CCS(=O)(=O)NCCn1c([C@H](C)NC(=O)c2c(N)nn3cccnc23)cc2cccc(Cl)c2c1=O`, the half-inhibitory concentration (IC50) result is “in the range around 5.5 µM”.

For `C[C@H](NC(=O)c1c(N)nn2cccnc12)c1cc2cccc(Cl)c2c(=O)n1CCc1nnn[nH]1`, the half-maximal inhibitory concentration (IC50) entry is “in the range around 5.5 µM”.

For `C[C@H](NC(=O)c1c(N)nn2cccnc12)c1nc2cccc(Cl)c2c(=O)n1-c1ccc(F)cc1`, the IC50 result is “in the range around 5.5 µM”.

Turning to `C[C@H](NC(=O)c1c(N)nn2cccnc12)c1cc2cccc(Cl)c2c(=O)n1CCc1ccccc1`, the half-maximal inhibitory concentration (IC50) entry is “in the range around 5.5 µM”.

In the case of `C[C@H](NC(=O)c1c(N)nn2cccnc12)c1nc2cccc(Cl)c2c(=O)n1-c1ccc(F)c(F)c1`, the IC50 result is “in the range around 5.5 µM”.

As for `C[C@H](NC(=O)c1c(N)nn2cccnc12)c1cc2cccc(Cl)c2c(=O)n1CCNS(C)(=O)=O`, the IC50 result was “in the range around 5.5 µM”.

Take `C[C@H](NC(=O)c1c(N)nn2cccnc12)c1cc2cccc(-c3cnn(CC(F)(F)F)c3)c2c(=O)n1-c1ccccc1`: the IC50 result is “in the range around 5.5 µM”.

For `C[C@H](NC(=O)c1nccnc1N)c1oc2ccc(F)cc2c(=O)c1-c1ccccc1`, the IC50 entry was “in the range around 5.5 µM”.

Take `C[C@H](NC(=O)c1nccnc1N)c1nc2cccc(Cl)c2c(=O)n1-c1ccc(F)cc1`: the half-maximal inhibitory concentration (IC50) result was “in the range around 5.5 µM”.

Regarding `Cc1noc(CCn2c([C@H](C)NC(=O)c3c(N)nn4cccnc34)cc3cccc(Cl)c3c2=O)n1`, the IC50 result is “in the range around 5.5 µM”.

For `C[C@H](NC(=O)c1c(N)nn2cccnc12)c1cc2cccc(Cl)c2c(=O)n1CCc1nnnn1C`, the IC50 entry is “in the range around 5.5 µM”.

As to `C[C@H](NC(=O)c1c(N)nn2cccnc12)c1cc2cccc(Cl)c2c(=O)n1-c1ccc(S(C)(=O)=O)cc1`, the concentration for half-maximal inhibition (IC50) result is “in the range around 5.5 µM”.

Turning to `C[C@H](NC(=O)c1c(N)nn2cccnc12)c1cc2cccc(OCc3cnn(C)c3)c2c(=O)n1-c1ccccc1`, the IC50 result was “in the range around 5.5 µM”.

Regarding `C[C@H](NC(=O)c1c(N)nn2cccnc12)c1cc2cccc(Cl)c2c(=O)n1-c1ccccc1NS(C)(=O)=O`, the half-inhibitory concentration (IC50) result is “in the range around 5.5 µM”.

With `C[C@H](NC(=O)c1nc(C2CC2)cnc1N)c1cc2cccc(Cl)c2c(=O)n1-c1ccccc1`, the IC50 entry is “in the range around 5.5 µM”.

As for `C[C@H](NC(=O)c1c(N)nn2cccnc12)c1cc2cccc(CC(=O)C(C)(C)C)c2c(=O)n1-c1ccccc1`, the IC50 entry is “in the range around 5.5 µM”.

Turning to `C[C@H](NC(=O)c1c(N)nn2cccnc12)c1nc2c(Cl)cccc2c(=O)n1-c1ccccc1`, the half-inhibitory concentration (IC50) entry was “in the range around 5.5 µM”.

Take `CNS(=O)(=O)CCn1c([C@H](C)NC(=O)c2c(N)nn3cccnc23)cc2cccc(Cl)c2c1=O`: the concentration for half-maximal inhibition (IC50) entry was “in the range around 5.5 µM”.

On to `CCn1cc(-c2cccc3cc([C@H](C)NC(=O)c4c(N)nn5cccnc45)n(-c4ccccc4)c(=O)c23)cn1`, for which the 50% inhibitory concentration (IC50) result was “in the range around 5.5 µM”.

As for `C[C@H](NC(=O)c1c(N)nn2cccnc12)c1cc2cccc(Cl)c2c(=O)n1CCCNS(C)(=O)=O`, the half-inhibitory concentration (IC50) result was “in the range around 0.75 µM”.

With `C[C@H](NC(=O)c1c(N)nn2cccnc12)c1cc2cccc(Cl)c2c(=O)n1-c1ccccc1F`, the concentration for half-maximal inhibition (IC50) result was “in the range around 5.5 µM”.

Consider `C[C@H](NC(=O)c1c(N)nn2cccnc12)c1cc2cccc(Cl)c2c(=O)n1CCc1noc(C(C)(C)C)n1`, for which the IC50 entry was “in the range around 5.5 µM”.

As to `C#CCCn1c([C@H](C)NC(=O)c2c(N)nn3cccnc23)cc2cccc(Cl)c2c1=O`, the IC50 result is “in the range around 5.5 µM”.

`C[C@H](NC(=O)c1c(N)nn2cccnc12)c1cc2cccc(Cl)c2c(=O)n1CCS(N)(=O)=O`: the half-inhibitory concentration (IC50) entry is “in the range around 5.5 µM”.

As for `C[C@H](NC(=O)c1c(N)nn2cccnc12)c1cc2cccc(Cl)c2c(=O)n1-c1cccc(O)c1`, the half-maximal inhibitory concentration (IC50) result was “in the range around 5.5 µM”.

Take `C[C@H](NC(=O)c1c(N)nn2cccnc12)c1nc2ccccc2c(=O)n1-c1ccccc1`: the IC50 result is “in the range around 5.5 µM”.

Consider `C[C@H](NC(=O)c1c(N)nn2cccnc12)c1nc2ccc(Cl)cc2c(=O)n1-c1ccccc1`, for which the half-inhibitory concentration (IC50) result was “in the range around 5.5 µM”.

For `CC(=O)Cc1cccc2nc([C@H](C)NC(=O)c3c(N)nn4cccnc34)n(-c3ccccc3)c(=O)c12`, the 50% inhibitory concentration (IC50) result is “in the range around 5.5 µM”.

Turning to `CC(C)C(=O)Cc1cccc2cc([C@H](C)NC(=O)c3c(N)nn4cccnc34)n(-c3ccccc3)c(=O)c12`, the 50% inhibitory concentration (IC50) entry is “in the range around 5.5 µM”.

As for `C[C@H](NC(=O)c1c(N)nn2cccnc12)c1cc2cccc(Cl)c2c(=O)n1-c1ccc(NS(C)(=O)=O)cc1`, the IC50 entry is “in the range around 5.5 µM”.

Consider `C[C@H](NC(=O)c1c(N)nn2cccnc12)c1cc2cccc(Cl)c2c(=O)n1CCc1nnn(C)n1`, for which the concentration for half-maximal inhibition (IC50) entry was “in the range around 5.5 µM”.

In the case of `C[C@H](NC(=O)c1c(N)nn2cccnc12)c1cc2cccc(Cl)c2c(=O)n1-c1ccc(O)cc1`, the IC50 result was “in the range around 5.5 µM”.

As to `C[C@H](NC(=O)c1c(N)nn2cccnc12)c1cc2cccc(Cl)c2c(=O)n1-c1ccccc1O`, the 50% inhibitory concentration (IC50) entry is “in the range around 5.5 µM”.

For `C[C@H](NC(=O)c1c(N)nn2cccnc12)c1cc2cccc(Cl)c2c(=O)n1C1CC(NS(C)(=O)=O)C1` (stereo partly specified), the half-inhibitory concentration (IC50) entry was “in the range around 5.5 µM”.

In the case of `C[C@H](NC(=O)c1c(N)nn2cccnc12)c1cc2cccc(OCC(F)(F)F)c2c(=O)n1-c1ccccc1`, the IC50 result was “in the range around 5.5 µM”.

`C[C@H](NC(=O)c1c(N)nn2cccnc12)c1cc2cccc(Cl)c2c(=O)n1-c1cccc(S(C)(=O)=O)c1`: the half-maximal inhibitory concentration (IC50) entry was “in the range around 5.5 µM”.

Take `C[C@H](NC(=O)c1c(N)ncn2ccnc12)c1cc2cccc(Cl)c2c(=O)n1-c1ccccc1`: the IC50 entry was “in the range around 5.5 µM”.

In the case of `C[C@H](NC(=O)c1c(N)nn2cccnc12)c1cc2cccc(Cl)c2c(=O)n1C1CCC1`, the IC50 result is “in the range around 5.5 µM”.

`Cc1ccnc2c(C(=O)N[C@@H](C)c3cc4cccc(Cl)c4c(=O)n3-c3ccccc3)c(N)nn12`: the concentration for half-maximal inhibition (IC50) entry is “in the range around 5.5 µM”.

Regarding `Cc1cccc2c(=O)n(-c3ccccc3)c([C@H](C)NC(=O)c3c(N)nn4cccnc34)nc12`, the IC50 result is “in the range around 5.5 µM”.

As for `C[C@H](NC(=O)c1nccnc1N)c1cc2cccc(C(F)(F)F)c2c(=O)n1-c1ccccc1`, the IC50 entry was “in the range around 5.5 µM”.

`C[C@H](NC(=O)c1c(N)nn2cccnc12)c1nc2cccc(N3CCOCC3)c2c(=O)n1-c1ccccc1`: the IC50 result was “in the range around 5.5 µM”.

As to `C[C@H](NC(=O)c1c(N)nn2cccnc12)c1cc2cccc(Cl)c2c(=O)n1CCc1cnn[nH]1`, the IC50 entry is “in the range around 5.5 µM”.

For the molecule `C[C@H](NC(=O)c1c(N)nn2cccnc12)c1oc2ccc(F)cc2c(=O)c1-c1ccccc1`, the IC50 result was “in the range around 5.5 µM”.

Regarding `C[C@H](NC(=O)c1c(N)nn2cccnc12)c1cc2cccc(Cl)c2c(=O)n1-c1cccnc1`, the half-inhibitory concentration (IC50) entry is “in the range around 5.5 µM”.

Regarding `C[C@H](NC(=O)c1c(N)nn2cccnc12)c1cc2cccc(Cl)c2c(=O)n1CCc1c[nH]cn1`, the IC50 result was “in the range around 5.5 µM”.

For `C[C@H](NC(=O)c1c(N)nn2cccnc12)c1cc2cccc(Cl)c2c(=O)n1-c1cccc(NS(C)(=O)=O)c1`, the half-maximal inhibitory concentration (IC50) result was “in the range around 5.5 µM”.

`Cc1ccccc1-n1c([C@H](C)NC(=O)c2c(N)nn3cccnc23)cc2cccc(Cl)c2c1=O`: the IC50 entry was “in the range around 5.5 µM”.

For `Cc1cccc(-n2c([C@H](C)NC(=O)c3c(N)nn4cccnc34)cc3cccc(Cl)c3c2=O)c1`, the IC50 entry was “in the range around 5.5 µM”.

Take `C[C@H](NC(=O)c1c(N)nn2cccnc12)c1cc2cccc(Cl)c2c(=O)n1Cc1nnn[nH]1`: the IC50 result is “in the range around 5.5 µM”.

As to `C[C@H](NC(=O)c1c(N)nn2cccnc12)c1cc2cccc(Cl)c2c(=O)n1CCS(=O)(=O)N(C)C`, the IC50 entry was “in the range around 0.75 µM”.

Turning to `C[C@H](NC(=O)c1c(N)nn2cccnc12)c1cc2cccc(-c3cnn(CC#N)c3)c2c(=O)n1-c1ccccc1`, the IC50 entry is “in the range around 5.5 µM”.
